Test results as given in patent publication US8618111B2, “5-alkynyl-pyrimidines” (Boehringer Ingelheim International GmbH, priority 2010, dated 2013).

How the values were obtained:
PI3Kalpha = PI3Kalpha (Homo sapiens (Human), UniProt P42336); assay: Inhibition of PI3Kalpha-induced PIP-2 phosphorylation (filter-binding assay); assay type: biochemical; conditions: 33P-ATP
Experimental: Inhibition of PI3Kalpha-Induced PIP-2 Phosphorylation
Method Type: Filter-Binding-Assay
Aliquoted in desired amounts and stored at −80° C. Final assay concentration 25 ng/well.

mTOR = mTOR (Homo sapiens (Human), UniProt P42345); assay: mTOR kinase activity assay (phosphorylation status of mTOR substrate 4E-BP1; TR-FRET); assay type: biochemical; conditions: GFP-4E-BP1 substrate, 8 μM ATP
mTOR, sequence (P42345 1360-2549): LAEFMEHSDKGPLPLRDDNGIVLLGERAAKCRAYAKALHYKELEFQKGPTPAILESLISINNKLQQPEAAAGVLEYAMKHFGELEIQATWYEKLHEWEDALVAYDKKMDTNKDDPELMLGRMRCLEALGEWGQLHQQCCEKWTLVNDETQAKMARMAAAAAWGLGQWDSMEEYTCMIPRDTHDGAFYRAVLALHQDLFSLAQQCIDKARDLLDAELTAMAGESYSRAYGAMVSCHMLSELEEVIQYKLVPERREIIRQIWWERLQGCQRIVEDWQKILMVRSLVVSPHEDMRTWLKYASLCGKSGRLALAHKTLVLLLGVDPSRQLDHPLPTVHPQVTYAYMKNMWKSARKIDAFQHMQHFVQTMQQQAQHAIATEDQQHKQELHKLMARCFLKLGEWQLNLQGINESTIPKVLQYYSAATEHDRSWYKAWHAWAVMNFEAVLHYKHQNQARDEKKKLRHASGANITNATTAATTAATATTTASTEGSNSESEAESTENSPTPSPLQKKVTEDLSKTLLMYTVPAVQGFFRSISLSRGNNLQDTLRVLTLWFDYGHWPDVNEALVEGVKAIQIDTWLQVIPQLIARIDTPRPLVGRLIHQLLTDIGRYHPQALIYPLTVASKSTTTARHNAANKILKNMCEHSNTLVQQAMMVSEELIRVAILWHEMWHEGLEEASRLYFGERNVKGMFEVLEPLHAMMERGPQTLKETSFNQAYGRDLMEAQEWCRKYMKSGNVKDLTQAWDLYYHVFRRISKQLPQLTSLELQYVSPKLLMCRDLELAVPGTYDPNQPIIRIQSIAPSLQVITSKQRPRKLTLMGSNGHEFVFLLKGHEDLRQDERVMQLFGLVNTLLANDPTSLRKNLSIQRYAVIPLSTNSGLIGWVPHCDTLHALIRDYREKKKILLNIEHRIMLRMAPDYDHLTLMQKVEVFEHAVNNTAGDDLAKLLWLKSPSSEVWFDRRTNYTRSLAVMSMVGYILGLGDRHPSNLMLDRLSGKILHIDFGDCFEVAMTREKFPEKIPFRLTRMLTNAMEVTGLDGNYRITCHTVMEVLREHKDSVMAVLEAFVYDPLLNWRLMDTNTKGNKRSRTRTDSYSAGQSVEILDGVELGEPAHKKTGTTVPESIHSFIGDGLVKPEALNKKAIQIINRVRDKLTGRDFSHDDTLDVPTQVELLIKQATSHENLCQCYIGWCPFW
Experimental: mTOR Kinase Activity Assay
(Phosphorylation Status of mTOR Substrate 4E-BP1; TR-FRET)
The mTOR kinase TR-FRET assay utilizes a physiologically relevant protein substrate for mTOR (4E-BP1, labeled with an acceptor fluorophore (Green Fluorescent Protein) and paired with a corresponding Tb-labeled phospho-specific antibody.
The assay itself is divided into two phases: the reaction phase and the detection phase. In the reaction phase, all components required for the kinase reaction are added to the well, including the labeled protein substrate. The reaction is allowed to incubate for 60 minutes. After the reaction, EDTA is added to stop the kinase reaction, and terbium-labeled antibody is added to bind phosphorylated product. Because the terbium chelate is stable at the EDTA concentrations used to stop a kinase assay, the antibody and EDTA can be pre-mixed prior to addition to minimize pipetting steps. Binding of the terbium labeled antibody to the fluorophore-labeled phosphorylated product brings the terbium and GFP into proximity, resulting in an increase in TR-FRET. In the presence of an inhibitor, formation of phosphorylated product is reduced, and the TR-FRET value is decreased.
• GFP-4E-BP1 substrate; Invitrogen order no. PV4759 • Lanthascreen Tb-anti-p4E-BP1 (pThr46) Antibody Kit; Invitrogen order no. PV4758 • FRAP1 (mTOR) kinase; Invitrogen order no.
400 nM GFP-4E-BP1, 8 μM ATP, ˜150 ng/mL mTOR, 50 mM HEPES pH 7.5, 0.01% Polysorbate 20, 1 mM EGTA, 10 mM MnCl2, and variable amounts of test compounds.
Note: Thaw and keep mTOR, the substrate, ATP, and the antibody on ice prior to making working dilutions. Working dilutions of these components can be kept at room temperature for short periods of time the day of use. • 1. Add 2 ml of 5× Assay Buffer to 8 ml water to prepare 10 ml of 1× Assay Buffer, wherein the concentration of 1× Assay Buffer is 50 mM HEPES pH 7.5, 0.01% Polysorbate 20, 1 mM EGTA, and 10 mM MnCl2. • 2. Prepare Antibody/EDTA Solution by first adding 2.75 μl of Tb-anti p4E-BP1 Antibody to 2397 μl of LanthaScreen™ TR-FRET Dilution Buffer. Then, add 100 μl of 0.5 M EDTA. • 3. […] Then, add 1.6 μl of mTOR (0.45 mg/mL). • 4. Prepare ATP Solution by adding 3.2 μl of 10 mM ATP to 1997 μl of 1× Assay Buffer. Serial Dilution of Inhibitors (16 Point Curve)
Inhibitors are serially diluted in DMSO, then diluted to a 4× working concentration with 1× Assay Buffer. • 1. Dispense 40 μl of DMSO to two adjacent columns of a 96 well plate per compound (e.g. columns 1 and 2). • 2. Add 10 μl of inhibitor stock (10 mM) to the first well of the first column (A1) and mix. • 3. Remove 10 μl from A1 and transfer to the adjacent well in the next column (B1) and mix. • 4. Remove 10 μl from B1 and transfer to the next well in the first column (B2) and mix. • 5. […] Remove 4 μl of diluted compounds and add to 96 μl of 1× Assay Buffer in a 96-well plate making 4× compound dilutions. Kinase Reaction • 1. Add 2.5 μl of 4X compound dilutions to a 384-well plate. • 2. […] Preincubate for […] at RT (shaker). • 5. Add 5 μl of ATP Solution to all wells to start reactions. • 6. Shake the assay plate on a plate shaker for 30 seconds. • 7. Incubate the assay plate for one hour at room temperature (20-25° C.). Stop Step and Fluorescence Detection • 1. Add 10 μl of Antibody/EDTA Solution to each well in columns 1-9. • 2. Shake the assay plate on a plate shaker for 30 seconds. • 3. Incubate the assay plate for one hour at room temperature (20-25° C.). • 4. Measure the GFP (FRET) and terbium (reference) emission signals on a fluorescence plate reader (e.g. Perkin Elmer Envision). Data Analysis • 1. Calculate the emission ratio for each sample by dividing the GFP (FRET) signal by the terbium (reference) signal. • 2.

[1] = tested on: PC3 (human prostate carcinoma cell line) cells; assay: PC3 proliferation test; assay type: cell-based; conditions: PC-3, 72 h, 3 days incubation, DNA dye fluorescence
Experimental: The test is based on measurement of cellular DNA content via fluorescent dye binding. Because cellular DNA content is highly regulated, it is closely proportional to cell number. The extent of proliferation is determined by comparing cell counts for samples treated with drugs with untreated controls.
PC3 (human prostate carcinoma cell line) cells are sown in microtitre plates and incubated overnight in culture medium at 37° C. and 5% CO2. The test substances are diluted stepwise and added to the cells such that the total volume is 200 μL/well. Cells to which diluent, but not substance, is added serve as controls.

PI3Kalpha, sequence (P42336 whole entry, species assumed): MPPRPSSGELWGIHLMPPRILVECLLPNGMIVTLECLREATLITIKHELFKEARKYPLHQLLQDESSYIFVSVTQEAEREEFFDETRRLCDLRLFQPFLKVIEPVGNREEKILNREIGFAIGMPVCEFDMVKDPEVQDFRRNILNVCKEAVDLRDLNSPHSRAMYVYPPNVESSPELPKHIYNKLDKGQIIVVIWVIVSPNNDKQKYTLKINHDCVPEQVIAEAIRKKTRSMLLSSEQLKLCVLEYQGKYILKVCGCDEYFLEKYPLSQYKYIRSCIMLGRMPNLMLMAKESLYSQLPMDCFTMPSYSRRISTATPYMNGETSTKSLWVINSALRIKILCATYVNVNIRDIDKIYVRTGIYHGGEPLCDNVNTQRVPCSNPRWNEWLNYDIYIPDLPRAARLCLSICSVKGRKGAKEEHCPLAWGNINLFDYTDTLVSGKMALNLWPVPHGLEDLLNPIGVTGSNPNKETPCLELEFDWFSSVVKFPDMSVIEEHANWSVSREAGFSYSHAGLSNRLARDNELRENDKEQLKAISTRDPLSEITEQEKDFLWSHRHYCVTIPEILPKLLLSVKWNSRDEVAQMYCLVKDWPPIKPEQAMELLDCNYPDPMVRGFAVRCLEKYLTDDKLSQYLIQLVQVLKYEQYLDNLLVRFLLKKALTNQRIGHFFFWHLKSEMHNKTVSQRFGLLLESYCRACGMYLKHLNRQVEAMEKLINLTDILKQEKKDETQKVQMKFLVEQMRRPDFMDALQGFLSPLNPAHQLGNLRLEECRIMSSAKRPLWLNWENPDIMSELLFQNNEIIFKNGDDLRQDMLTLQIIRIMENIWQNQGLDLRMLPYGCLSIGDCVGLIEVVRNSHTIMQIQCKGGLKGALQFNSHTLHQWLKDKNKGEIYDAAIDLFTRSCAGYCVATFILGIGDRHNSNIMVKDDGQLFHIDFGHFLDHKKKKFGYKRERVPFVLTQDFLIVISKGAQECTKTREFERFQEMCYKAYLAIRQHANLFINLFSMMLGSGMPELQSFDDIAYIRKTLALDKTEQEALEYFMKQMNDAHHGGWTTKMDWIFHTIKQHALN
PI3Kalpha, sequence (P27986 whole entry partner, species assumed): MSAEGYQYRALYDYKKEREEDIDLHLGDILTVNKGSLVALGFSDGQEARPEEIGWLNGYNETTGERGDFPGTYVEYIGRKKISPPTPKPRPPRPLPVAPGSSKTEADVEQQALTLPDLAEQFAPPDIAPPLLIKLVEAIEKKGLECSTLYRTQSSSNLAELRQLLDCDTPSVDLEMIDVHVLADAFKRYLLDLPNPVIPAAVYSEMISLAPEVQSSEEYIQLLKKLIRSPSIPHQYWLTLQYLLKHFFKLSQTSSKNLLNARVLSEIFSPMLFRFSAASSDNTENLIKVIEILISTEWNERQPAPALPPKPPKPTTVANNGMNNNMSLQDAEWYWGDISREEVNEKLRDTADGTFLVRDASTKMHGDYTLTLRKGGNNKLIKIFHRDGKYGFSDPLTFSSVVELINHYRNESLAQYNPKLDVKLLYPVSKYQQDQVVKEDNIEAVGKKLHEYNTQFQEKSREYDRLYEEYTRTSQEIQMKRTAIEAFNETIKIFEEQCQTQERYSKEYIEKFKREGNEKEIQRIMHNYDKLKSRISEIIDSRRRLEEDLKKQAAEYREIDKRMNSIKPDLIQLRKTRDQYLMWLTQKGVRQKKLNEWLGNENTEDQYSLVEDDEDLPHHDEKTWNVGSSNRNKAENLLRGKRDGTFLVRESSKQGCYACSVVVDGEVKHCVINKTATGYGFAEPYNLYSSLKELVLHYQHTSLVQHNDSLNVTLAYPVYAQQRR

SMILES | IC50 PI3Ka (PI3Kalpha) | IC50 (mTOR) | EC50 [1]
CC(=O)N1CCCN(c2ncnc(C)c2C#Cc2ccc(N)nc2)CC1 [Example B-7] | 348 nM | 94 nM | 722 nM
Cc1ncnc(N2CCC(O)(C(C)C)CC2)c1C#Cc1ccc(N)nc1 [Example B-66] | 51 nM | 5 nM | 24 nM
CCc1ncnc(N2CCC3(CCN(C(=O)COC)CC3)CC2)c1C#Cc1ccc(N)nc1 [Example G-12] | 37 nM | 32 nM | 41 nM
CCOC1CCN(c2ncnc(CC)c2C#Cc2ccc(N)nc2)CC1 [Example B-46] | – | – | 72 nM
Cc1ncnc(N2CCC3(CC2)OCCO3)c1C#Cc1ccc(N)nc1 [Example B-26] | 60 nM | 10 nM | 27 nM
CCc1ncnc(N2CCC3(CCCCC3)CC2)c1C#Cc1ccc(N)nc1 [Example H-3] | 369 nM | 333 nM | –
CCc1ncnc(N2CCC(C=C(C)C)CC2)c1C#Cc1ccc(N)nc1 [Example B-15] | 622 nM | 64 nM | 202 nM
CCc1ncnc(N2CCN(CCN3CCOCC3)CC2)c1C#Cc1ccc(N)nc1 [Example H-9] | 449 nM | 1570 nM | –
CCc1ncnc(N2CCC(=O)CC2)c1C#Cc1ccc(N)nc1 [Example B-62] | 109 nM | 28 nM | 105 nM
Cc1ncnc(N2CCN(C(=O)C3CCC3)CC2)c1C#Cc1ccc(N)nc1 [Example G-8] | 22 nM | 64 nM | 206 nM
Cc1ncnc(N2CCN(CC(C)(C)O)CC2)c1C#Cc1ccc(N)nc1 [Example B-79] | 53 nM | 18 nM | 238 nM
CCc1ncnc(N2CCC3(CCN(C(C)=O)CC3)CC2)c1C#Cc1ccc(N)nc1 [Example G-11] | 36 nM | 30 nM | 55 nM
Cc1ncnc(N2CCN(C)CC2)c1C#Cc1ccc(N)nc1 [Example B-8] | 547 nM | 56 nM | 277 nM
Cc1ncnc(N2CCC(CC(=O)N3CCOCC3)CC2)c1C#Cc1ccc(N)nc1 [Example E-6] | 83 nM | 59 nM | 358 nM
CCc1ncnc(N2CCC(O)CC2)c1C#Cc1ccc(N)nc1 [Example B-48] | 99 nM | 14 nM | 141 nM
CCc1ncnc(N2CCN(C(=O)NC)CC2)c1C#Cc1ccc(N)nc1 [Example G-1] | 33 nM | 84 nM | 212 nM
CCc1ncnc(N2CCC3(CC2)CC(=O)NC(=O)C3)c1C#Cc1ccc(N)nc1 [Example B-82] | 38 nM | 5 nM | 77 nM
Cc1ncnc(N2CCC(CNC(=O)C3CCCCC3)CC2)c1C#Cc1ccc(N)nc1 [Example F-6] | 51 nM | 78 nM | 277 nM
Cc1ncnc(N2CCOC(C)(C)C2)c1C#Cc1ccc(N)nc1 [Example B-1] | 46 nM | 105 nM | 112 nM
Cc1ncnc(N2CCC(CC(=O)NCCN(C)C)CC2)c1C#Cc1ccc(N)nc1 [Example E-8] | 149 nM | 261 nM | –
CCc1ncnc(N2CCn3c(C)cnc3C2)c1C#Cc1ccc(N)nc1 [Example B-78] | 72 nM | 31 nM | 101 nM
CCc1ncnc(N2CCN(C3CCOCC3)CC2)c1C#Cc1ccc(N)nc1 [Example H-12] | 141 nM | 77 nM | –
CCc1ncnc(N2CCN(C(C)=O)CC2)c1C#Cc1ccc(N)nc1 [Example B-40] | 62 nM | 32 nM | 187 nM

SMILES | IC50 PI3Ka (PI3Kalpha) | IC50 (mTOR) | EC50 [1]
Cc1ncnc(N2CCC(O)(C(F)(F)F)CC2)c1C#Cc1ccc(N)nc1 [Example B-32] | 24 nM | 3 nM | 15 nM
CCc1ncnc(N2CCC(O)CC2)c1C#Cc1ccc(C)nc1 [Example B-70] | 139 nM | 141 nM | 684 nM
CCc1ncnc(N2CCC3(CC2)OCCCO3)c1C#Cc1ccc(N)nc1 [Example B-61] | 43 nM | 4 nM | 33 nM
Cc1ncnc(N2CCC3(CCN(C)C3=O)CC2)c1C#Cc1ccc(N)nc1 [Example B-75] | 48 nM | 10 nM | 92 nM
CCc1ncnc(N2CCN(C3COC3)CC2)c1C#Cc1ccc(N)nc1 [Example H-26] | 105 nM | 47 nM | –
Cc1ncnc(N2CCC(CC(=O)N3CCN(C)CC3)CC2)c1C#Cc1ccc(N)nc1 [Example E-2] | 96 nM | 366 nM | –
Cc1ncnc(N2CCC(CNC(=O)CC(C)C)CC2)c1C#Cc1ccc(N)nc1 [Example F-7] | 47 nM | 237 nM | –
CCc1ncnc(N2CCc3cc(OC)c(OC)cc3C2)c1C#Cc1ccc(N)nc1 [Example H-18] | 43 nM | 83 nM | –
CCc1ncnc(N2CCNC(=O)C2)c1C#Cc1ccc(N)nc1 [Example H-5] | 745 nM | 91 nM | –
Cc1ncnc(N2CCC(=O)CC2)c1C#Cc1ccc(N)nc1 [Example B-65] | – | – | 218 nM
CCc1ncnc(N2CCC(O)(CC)CC2)c1C#Cc1ccc(N)nc1 [Example B-36] | – | 5 nM | 20 nM
Cc1ncnc(N2CCC(CC(=O)N(C)CCN(C)C)CC2)c1C#Cc1ccc(N)nc1 [Example E-3] | 2001 nM | 457 nM | –
CCc1ncnc(N2CCN(c3ccccc3C(F)(F)F)CC2)c1C#Cc1ccc(N)nc1 [Example H-19] | 1861 nM | 2000 nM | –
CCc1ncnc(N2CCNC(=O)C2)c1C#Cc1ccc(N)nc1 [Example H-4] | 58 nM | 45 nM | –
CCc1ncnc(N2CCc3c(ncnc3N3CCOCC3)C2)c1C#Cc1ccc(N)nc1 [Example H-27] | 103 nM | 139 nM | –
CCc1ncnc(N2CCN(Cc3nc(C)c(C)o3)CC2)c1C#Cc1ccc(N)nc1 [Example H-28] | 232 nM | 258 nM | –
Cc1ncnc(N2CCC(CNC(=O)CN(C)C)CC2)c1C#Cc1ccc(N)nc1 [Example F-4] | 301 nM | 457 nM | –
CCc1ncnc(N2CCN(C(=O)N3CCOCC3)CC2)c1C#Cc1ccc(N)nc1 [Example H-16] | 116 nM | 22 nM | –
CCc1ncnc(N2CCn3c(COC)nnc3C2)c1C#Cc1ccc(N)nc1 [Example H-8] | 185 nM | 127 nM | –
Cc1ncnc(N2CCC(C)(O)CC2)c1C#Cc1ccc(N)nc1 [Example B-23] | – | 7 nM | 19 nM
CCc1ncnc(N2CCc3ccccc3C2)c1C#Cc1ccc(N)nc1 [Example H-17] | 56 nM | 68 nM | –
CCc1ncnc(N2CCN(CCCS(C)(=O)=O)CC2)c1C#Cc1ccc(N)nc1 [Example H-15] | 108 nM | 25 nM | –
